SMILES strings stand for the structures.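 Where inhibition never reached the appropriate level, the endpoint shown equals the highest concentration tested. Otherwise, values were interpolated linearly from a five-concentration, 48-hour dose response in 96-well plates. At the TGI there is no net growth.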

The subject of one assay is SK-OV-3 ovarian. As to the kind of experiment: growth of human tumour cells (NCI), 48 h.
With `O=C1c2cc3c(cc2CC12Cc1cc4c(cc1C2=O)CCCC4)CCCC3`, the TGI is > 100 µM.

As for `c1csc(-c2cscc2-c2ccsc2)c1`, the TGI is > 100 µM.

As to `COc1ccc(C2c3cc4c(cc3C(O)C3CCC(=O)N23)OCO4)cc1` (configuration not stated), the TGI is > 100 µM.

Consider `CC1(C)C(=O)N(O)C(C)(C)N1O`, for which the TGI was > 10 µM.

With `CCOC(=O)CCC(NC(=O)Cc1ccc(Nc2nc3ccccc3nc2-c2ccccc2)cc1)C(=O)OCC` (configuration not stated), the TGI is > 100 µM.

For `COc1cc(/C=C/C(=O)c2sc(-n3nc(-c4ccccc4)cc3-c3ccccc3)nc2C)ccc1O`, the TGI is > 100 µM.

Take `O=S1(=O)c2cnccc2NC(=NCc2cccc3ccccc23)N1c1ccccc1`: the TGI is > 100 µM.

As for `COc1cc(NC(C)=O)c2[nH]c3c(C)cc(NC(C)=O)c(C)c3c2c1`, the TGI was > 100 µM.

For the compound `CCCCCC(=O)Nc1n[nH]nc1C(N)=O`, the TGI is > 100 µM.

Take `O=P(O)(OCC(O)O)OCC(O)O`: the TGI was > 100 µM.

Turning to `NC(=O)C(Nc1c(Cl)cccc1Cl)c1cc2cc(Br)ccc2nc1Cl` (configuration not stated), the TGI was > 100 µM.

For `CCOC(=O)CSc1ccnc(=O)[nH]1`, the TGI was > 100 µM.

Take `COc1ccc(Br)c2c1CC(C(=O)O)CC2` (configuration not stated): the TGI is > 100 µM.

Take `Fc1cc(C2=C[C@H](c3ccc(Cl)cc3)NC(=S)N2)c(Cl)cc1Cl`: the TGI is > 100 µM.

Another assay concerns SNB-19 CNS. The assay is described as follows: growth of human tumour cells (NCI), 48 h.
With `CCOC(C[C@H](O)[C@H]1COC(=S)S1)OCC`, the TGI is > 100 µM.

As to `Cn1c(O)c(C(=O)Nc2cccs2)c(=O)[nH]c1=S`, the TGI was 79.6 µM.

Take `O=C1c2cc3c(cc2CC12Cc1cc4c(cc1C2=O)CCCC4)CCCC3`: the TGI is > 100 µM.

Turning to `c1csc(-c2cscc2-c2ccsc2)c1`, the TGI is > 100 µM.

Turning to `COc1ccc(C2c3cc4c(cc3C(O)C3CCC(=O)N23)OCO4)cc1` (configuration not stated), the TGI is > 100 µM.

On to `CC1(C)C(=O)N(O)C(C)(C)N1O`, for which the TGI is > 10 µM.

As for `CCOC(=O)CCC(NC(=O)Cc1ccc(Nc2nc3ccccc3nc2-c2ccccc2)cc1)C(=O)OCC` (configuration not stated), the TGI is > 100 µM.

Turning to `O=S1(=O)c2cnccc2NC(=NCc2cccc3ccccc23)N1c1ccccc1`, the TGI is > 100 µM.

As to `COc1cc(NC(C)=O)c2[nH]c3c(C)cc(NC(C)=O)c(C)c3c2c1`, the TGI is > 100 µM.

Consider `COc1cc(/C=C\c2ccccn2)cc(OC)c1OC`, for which the TGI was > 100 µM.

Consider `CCCCCC(=O)Nc1n[nH]nc1C(N)=O`, for which the TGI is > 100 µM.

Take `O=P(O)(OCC(O)O)OCC(O)O`: the TGI was > 100 µM.

For `NC(=O)C(Nc1c(Cl)cccc1Cl)c1cc2cc(Br)ccc2nc1Cl` (configuration not stated), the TGI was > 100 µM.

As to `CCOC(=O)CSc1ccnc(=O)[nH]1`, the TGI is > 100 µM.

`COc1ccc(Br)c2c1CC(C(=O)O)CC2` (configuration not stated): the TGI was > 100 µM.

`Fc1cc(C2=C[C@H](c3ccc(Cl)cc3)NC(=S)N2)c(Cl)cc1Cl`: the TGI was > 100 µM.

For a further assay, the system named is SR leukemia. The assay is described as follows: growth of human tumour cells (NCI), 48 h.
As to `CCOC(C[C@H](O)[C@H]1COC(=S)S1)OCC`, the TGI is > 100 µM.

`O=C1c2cc3c(cc2CC12Cc1cc4c(cc1C2=O)CCCC4)CCCC3`: the TGI is > 100 µM.

Turning to `c1csc(-c2cscc2-c2ccsc2)c1`, the TGI is > 95.9 µM.

Turning to `COc1ccc(C2c3cc4c(cc3C(O)C3CCC(=O)N23)OCO4)cc1` (configuration not stated), the TGI is > 100 µM.

For the compound `CC1(C)C(=O)N(O)C(C)(C)N1O`, the TGI was > 10 µM.

Consider `CCOC(=O)CCC(NC(=O)Cc1ccc(Nc2nc3ccccc3nc2-c2ccccc2)cc1)C(=O)OCC` (configuration not stated), for which the TGI was > 100 µM.

In the case of `O=S1(=O)c2cnccc2NC(=NCc2cccc3ccccc23)N1c1ccccc1`, the TGI was > 100 µM.

With `CCCCCC(=O)Nc1n[nH]nc1C(N)=O`, the TGI is > 100 µM.

Consider `NC(=O)C(Nc1c(Cl)cccc1Cl)c1cc2cc(Br)ccc2nc1Cl` (configuration not stated), for which the TGI stood at 56.5 µM.

Turning to `COc1ccc(Br)c2c1CC(C(=O)O)CC2` (configuration not stated), the TGI is > 100 µM.

For `Fc1cc(C2=C[C@H](c3ccc(Cl)cc3)NC(=S)N2)c(Cl)cc1Cl`, the TGI is > 100 µM.

The subject of a further assay is UACC-257 melanoma. As to the kind of experiment: growth of human tumour cells (NCI), 48 h.
On to `CCOC(C[C@H](O)[C@H]1COC(=S)S1)OCC`, for which the TGI is > 100 µM.

As for `Cn1c(O)c(C(=O)Nc2cccs2)c(=O)[nH]c1=S`, the TGI was 32.6 µM.

The compound `O=C1c2cc3c(cc2CC12Cc1cc4c(cc1C2=O)CCCC4)CCCC3` showed a TGI of 82.1 µM.

For `c1csc(-c2cscc2-c2ccsc2)c1`, the TGI is > 100 µM.

Regarding `COc1ccc(C2c3cc4c(cc3C(O)C3CCC(=O)N23)OCO4)cc1` (configuration not stated), the TGI is > 100 µM.

Regarding `CC1(C)C(=O)N(O)C(C)(C)N1O`, the TGI was > 10 µM.

In the case of `CCOC(=O)CCC(NC(=O)Cc1ccc(Nc2nc3ccccc3nc2-c2ccccc2)cc1)C(=O)OCC` (configuration not stated), the TGI is > 100 µM.

As for `COc1cc(/C=C/C(=O)c2sc(-n3nc(-c4ccccc4)cc3-c3ccccc3)nc2C)ccc1O`, the TGI is > 100 µM.

In the case of `O=S1(=O)c2cnccc2NC(=NCc2cccc3ccccc23)N1c1ccccc1`, the TGI is > 100 µM.

On to `COc1cc(/C=C\c2ccccn2)cc(OC)c1OC`, for which the TGI is > 100 µM.

As to `CCCCCC(=O)Nc1n[nH]nc1C(N)=O`, the TGI was > 100 µM.

In the case of `O=P(O)(OCC(O)O)OCC(O)O`, the TGI is > 100 µM.

For the compound `NC(=O)C(Nc1c(Cl)cccc1Cl)c1cc2cc(Br)ccc2nc1Cl` (configuration not stated), the TGI was > 100 µM.

With `CCOC(=O)CSc1ccnc(=O)[nH]1`, the TGI was > 100 µM.

On to `COc1ccc(Br)c2c1CC(C(=O)O)CC2` (configuration not stated), for which the TGI was > 100 µM.

As to `Fc1cc(C2=C[C@H](c3ccc(Cl)cc3)NC(=S)N2)c(Cl)cc1Cl`, the TGI was > 100 µM.

Another assay has as its system UACC-62 melanoma. As to the kind of experiment: growth of human tumour cells (NCI), 48 h.
As to `CCOC(C[C@H](O)[C@H]1COC(=S)S1)OCC`, the TGI is > 100 µM.

`Cn1c(O)c(C(=O)Nc2cccs2)c(=O)[nH]c1=S` registered a TGI of 27.2 µM.

For `O=C1c2cc3c(cc2CC12Cc1cc4c(cc1C2=O)CCCC4)CCCC3`, the TGI was > 100 µM.

As to `c1csc(-c2cscc2-c2ccsc2)c1`, the TGI was > 100 µM.

For `COc1ccc(C2c3cc4c(cc3C(O)C3CCC(=O)N23)OCO4)cc1` (configuration not stated), the TGI is > 100 µM.

Regarding `CC1(C)C(=O)N(O)C(C)(C)N1O`, the TGI is > 10 µM.

Regarding `CCOC(=O)CCC(NC(=O)Cc1ccc(Nc2nc3ccccc3nc2-c2ccccc2)cc1)C(=O)OCC` (configuration not stated), the TGI was > 100 µM.

For `COc1cc(/C=C/C(=O)c2sc(-n3nc(-c4ccccc4)cc3-c3ccccc3)nc2C)ccc1O`, the TGI was > 100 µM.

`O=S1(=O)c2cnccc2NC(=NCc2cccc3ccccc23)N1c1ccccc1`: the TGI was > 100 µM.

Turning to `COc1cc(/C=C\c2ccccn2)cc(OC)c1OC`, the TGI was > 100 µM.

Take `CCCCCC(=O)Nc1n[nH]nc1C(N)=O`: the TGI was > 100 µM.

Take `NC(=O)C(Nc1c(Cl)cccc1Cl)c1cc2cc(Br)ccc2nc1Cl` (configuration not stated): the TGI was > 100 µM.

With `CCOC(=O)CSc1ccnc(=O)[nH]1`, the TGI is > 100 µM.

Regarding `COc1ccc(Br)c2c1CC(C(=O)O)CC2` (configuration not stated), the TGI was > 100 µM.

Consider `Fc1cc(C2=C[C@H](c3ccc(Cl)cc3)NC(=S)N2)c(Cl)cc1Cl`, for which the TGI was > 100 µM.

The record behind these values is PubChem BioAssay (NCI).
